# Data as given in PubChem BioAssay AID1996.
# Conditions: buffer; pH 7.4; 200.0 µM
row,Compound,solubility kinetic
1,O=C(/C=C/c1cccc(O)c1)c1ccc(N2CCOCC2)cc1,23.2 µg/mL
2,Cl.N=c1sccn1Cc1ccccc1F,> 36.7 µg/mL
3,CC(C)COC(=O)n1c(SCC(N)=O)nc2ccccc21,16.3 µg/mL
4,O=C(COC(=O)c1cc(=O)[nH]c2ccccc12)Nc1ccc(F)cc1,15.4 µg/mL
5,CC(=O)c1c(C)[nH]c(C(=O)OCC(=O)N(Cc2ccccc2)C(C)(C)C)c1C,12 µg/mL
6,NC(=O)C1CCCN(CC(=O)N2CCN(c3ccccc3)CC2)C1 (stereo not given),48.4 µg/mL
7,CCSS(=O)(=O)c1cccc2cccnc12,> 38 µg/mL
8,O=C(Nc1nccs1)c1cc([N+](=O)[O-])ccc1Cl,3.7 µg/mL
9,CNc1nc2c(C)cccn2c(=O)c1C=Nc1ccc(OC)cc1,0.9 µg/mL
10,Nc1ncnc2c1ncn2[C@@H]1O[C@H](CO)[C@@H](O)[C@H]1O,> 40.1 µg/mL
11,O=C(O)c1cc(-c2ccccc2Cl)n(-c2ccc(F)cc2)n1,> 47.5 µg/mL
12,Cc1cc(=O)n(CC(=O)O)c2ccccc12,> 32.6 µg/mL
13,CCc1cc2c(NC(Cc3ccccc3)C(=O)O)ncnc2s1 (stereo not given),> 49.1 µg/mL
14,Cc1ccc(NC(=O)CNC(=O)C2CCCCC2)nc1,> 41.3 µg/mL
15,CCOC(=O)C1(CC2CC2)CCN(C(=O)c2ocnc2C)CC1,> 48.1 µg/mL
16,CN(Cc1cccc(F)c1)CC(O)COCc1ccccc1Cl (stereo not given),44.9 µg/mL
17,O=C(Nc1cccc(C(F)(F)F)c1)c1cncs1,> 40.8 µg/mL
18,O=C(NC1CCCC1)c1ccc(Cl)s1,30.7 µg/mL
19,CCCN1C(=O)/C(=C/c2ccc3c(c2)OCO3)NC1=S,1.9 µg/mL
20,CC(C)NCc1nnc(-c2ccccc2Cl)o1,> 37.8 µg/mL
21,Fc1ccccc1CN1CCC(Cc2ccccc2)CC1,25.9 µg/mL
22,O=C1[C@@H]2CSCN2C(=O)CN1Cc1ccccc1F,> 42 µg/mL
23,CCc1cccc(C)c1N1C(=O)CN(Cc2ccccc2)C1=S,12.1 µg/mL
24,O=C(CCCCN1CCCCC1)c1ccc2c(c1)Cc1ccccc1-2,6.6 µg/mL

row,Compound,solubility kinetic
1,Cc1ccc(C(=O)Nc2nc(C)c(C(=O)N(C)C)s2)o1,40.3 µg/mL
2,O=C(/C=C/c1ccccc1)Nc1cc(NC(=O)/C=C/c2ccccc2)cc(C(=O)O)c1,52.7 µg/mL
3,CCOC(=O)/C(C#N)=C\c1cccnc1,> 30.3 µg/mL
4,O=C(O)CCN1CCN(S(=O)(=O)c2ccc3ccccc3c2)CC1,44.5 µg/mL
5,O=C(CNC(=O)[C@@H]1Cc2ccccc2CN1)NCc1ccco1,> 47 µg/mL
6,N[C@H]1CONC1=O,> 15.3 µg/mL
7,CCOc1nc(C)cc(C)c1S(=O)(=O)c1cccc(Cl)c1,6.2 µg/mL
8,Cc1cccc(C)c1NC(=S)N1CCCCCC1,> 39.4 µg/mL
9,O=C(COc1ccccc1)N1CCN(C(=O)c2ccccc2F)CC1,> 51.4 µg/mL
10,c1ccc2nc(SCc3cn4ccccc4n3)cnc2c1,> 43.9 µg/mL
11,CN(C)C(C)(C)/C=C/C(O)(c1ccccc1)c1ccccc1,43 µg/mL
12,Cc1ccc(-c2onc3ccc(C(=O)/C=C/N(C)C)cc23)cc1,2.3 µg/mL
13,CCOC(=O)CC1COc2ccccc2N1C(=O)c1ccc(F)cc1 (stereo not given),47 µg/mL
14,CC(=O)C1=C(O)C(=O)N(C)C1c1ccccc1[N+](=O)[O-] (stereo not given),> 41.4 µg/mL
15,O=[N+]([O-])c1ccccc1S(=O)(=O)N1CCSCC1,34.2 µg/mL
16,COc1ccc(CCNC(=O)/C=C/C(=O)O)cc1OC,> 41.9 µg/mL
17,O=C(COC(=O)[C@@H]1CCCN1C(=O)c1cccs1)Nc1cccc([N+](=O)[O-])c1,2.8 µg/mL
18,CCCc1cc(=O)oc2c(CN3CCN(C)CC3)c(O)ccc12,45.2 µg/mL
19,COc1ccc(NC(=S)NC(=O)C2CCC2)cc1,7.7 µg/mL
20,Cc1oc(-c2ccccc2)cc1C(=O)NC1CCN(Cc2ccccc2)CC1,< 0.4 µg/mL
21,O=C(Nc1cnccn1)Nc1ccccc1F,8.7 µg/mL
22,CCOc1ccc(C(=O)Nc2cccc3cccnc23)cc1,0.7 µg/mL
23,CC1CC(NC(=O)/C(C#N)=C/c2ccc[nH]2)CC(C)(C)C1 (stereo not given),< 0.2 µg/mL
24,O=S(=O)(c1ccccc1)N1CCc2ccccc21,2 µg/mL

row,Compound,solubility kinetic
1,O=C(NCc1c[nH]c2ccccc12)c1ccccc1,> 37.5 µg/mL
2,O=C1/C(=C\c2ccco2)SC(=S)N1C1CCS(=O)(=O)C1 (stereo not given),6.6 µg/mL
3,O=C(c1ccccc1)c1cc2c(cc1[N+](=O)[O-])OCCO2,7.3 µg/mL
4,CC(C)N1CCN(C(=O)c2ccc([N+](=O)[O-])cc2)CC1,27.3 µg/mL
5,O=C(Nc1ccncc1)Nc1ccc(Br)cc1Cl,1.9 µg/mL
6,Fc1ccc(NC(=S)Nc2cccc3ccccc23)cc1,16.7 µg/mL
7,Cc1ccc(S(=O)(=O)CC(=O)Nc2ccc(F)c(F)c2F)cc1,4.8 µg/mL
8,COC(=O)c1ccc(OC(=O)N2CCOCC2)cc1,33.6 µg/mL
9,COc1cc(/C=C/c2nc3ccccc3c(=O)[nH]2)cc(Cl)c1O,43.2 µg/mL
10,COc1ccc(/C(N)=N/OC(=O)C2CCCCC2)cc1OC,35.2 µg/mL
11,Cc1noc(C)c1C(=O)Nc1nccs1,> 33.5 µg/mL
12,COc1cccc2cc(-c3nc4ccccc4[nH]3)c(=O)oc12,< 0.3 µg/mL
13,COC(=O)/N=C(/Cc1ccc(OC)cc1)c1ccc(OC)cc1,43.6 µg/mL
14,O=S(=O)(c1ccc2[nH]c3c(c2c1)CCCC3)N1CCCCC1,12.3 µg/mL
15,Cc1cc2nc(-c3ccc[nH]c3=O)n(Cc3cccc(F)c3)c2cc1C,1.3 µg/mL
16,COc1ccc(NC(=O)c2cc(-c3ccccc3Cl)on2)cc1,< 0.4 µg/mL
17,O=C(c1cc(-c2ccc(Cl)cc2Cl)on1)N1CCCC1,1.8 µg/mL
18,O=C(CN1C(=O)NC2(CCCC2)C1=O)Nc1cc(C(F)(F)F)ccc1N1CCOCC1,5.2 µg/mL
19,O=C(O)c1ccc(S(=O)(=O)N2CCCc3ccccc32)cc1,> 47.6 µg/mL
20,CCOc1ccccc1/C=C/c1nc2ccccc2[nH]c1=O,1.6 µg/mL
21,CCCS(=O)(=O)c1ccc(COC(=O)c2ccc(NC(C)=O)cc2)cc1,25.5 µg/mL
22,O=C(C(=O)N1CCCC1)c1c(-c2ccccc2)[nH]c2ccccc12,> 47.8 µg/mL
23,Cc1cc(OCC(O)CN2CCCC2)cc(C)c1Cl.Cl (stereo not given),42.3 µg/mL
24,COCCCNS(=O)(=O)c1ccc2[nH]c(=O)[nH]c2c1,> 42.8 µg/mL

row,Compound,solubility kinetic
1,Cc1ccccc1-c1noc(-c2ccccc2C(=O)O)n1,> 42 µg/mL
2,O=C(CN1C(=O)NC2(CCCCCC2)C1=O)NC1CC1,> 41.9 µg/mL
3,COc1ccc(CCNC(=O)[C@@H](NC(N)=O)C(C)C)cc1,> 44 µg/mL
4,Cc1nnc(SCC(=O)NCC(=O)Nc2ccc(F)c(F)c2F)n1N,> 56.2 µg/mL
5,C=CC[n+]1c(C)csc1Nc1cccc(Br)c1.[Br-],3.3 µg/mL
6,CCOC(=O)N1CCN(CC(=O)Nc2ccc(F)c(F)c2)CC1,> 49.1 µg/mL
7,O=C(Cc1ccc(Cl)cc1)OCC(=O)N1CCCCCC1,> 46.5 µg/mL
8,O=C(NCc1ccccn1)Nc1cc(Cl)cc(Cl)c1,40.8 µg/mL
9,COc1ccc(CN(C)C(=O)Cc2ccsc2)c(OC)c1OC,35.2 µg/mL
10,O=C(COC(=O)C1CC(=O)N(Cc2ccco2)C1)Nc1nc(-c2ccc(F)cc2)cs1 (stereo not given),16.9 µg/mL
11,O=C(NC1CCS(=O)(=O)C1)c1ccc(Br)o1 (stereo not given),32.2 µg/mL
12,O=C(NCC1CCCO1)c1cncc(Br)c1 (stereo not given),> 42.8 µg/mL
13,C#CCOC(=O)C[N+](C)(C)CC#Cc1ccccc1.[Cl-],43.1 µg/mL
14,O=C(O)c1ccc(Nc2nc(-c3cccnc3)cs2)cc1O,> 47 µg/mL
15,O=C(CCl)Nc1c[nH]c(=O)[nH]c1=O,> 30.5 µg/mL
16,CCOc1ccc(C(=O)O/N=C(\N)c2ccccn2)cc1,5.2 µg/mL
17,CNC(=O)N1CCC(C(=O)c2c(C)c(C)c(C)c(C)c2C)CC1,36.5 µg/mL
18,CC1CCCCC1NC(=O)c1cc(=O)[nH]c2ccccc12 (stereo not given),3.6 µg/mL
19,COc1ccc(CNC(=O)CCSCc2cccc(F)c2)cc1,> 50 µg/mL
20,CCOc1ccc(CCNC(=O)c2cnccn2)cc1OCC,> 47.3 µg/mL
21,CCCCn1c(O)c(C(C)=NCc2ccco2)c(=O)[nH]c1=O,9.1 µg/mL
22,Cc1ccc(S(=O)(=O)N(C)CC(=O)OCC(=O)c2ccc3c(c2)NC(=O)CO3)cc1,25 µg/mL
23,COc1ccc(-c2csc(NC(=O)CN3C(=O)C4CC=CCC4C3=O)n2)cc1OC (stereo not given),16 µg/mL
24,COc1ccc(Cl)cc1NC(=S)NCc1cccs1,37.3 µg/mL

row,Compound,solubility kinetic
1,O=C(NC1CCCCC1)c1cc2cc(Br)ccc2o1,< 0.7 µg/mL
2,O=C(CN1C(=O)NC2(CCCC2)C1=O)OCc1ccccc1,21.8 µg/mL
3,Cc1ccccc1C(=O)NNC(=O)c1cccn1C,> 38.6 µg/mL
4,Cc1ccc(C)c(NC(=O)c2cc([N+](=O)[O-])cc([N+](=O)[O-])c2)c1,0.6 µg/mL
5,CSc1ccc(CN2CCc3c([nH]c4ccccc34)C2)cc1,2 µg/mL
6,COc1ccccc1CNC(=O)COC(=O)c1cc(C)nc2ccccc12,14.6 µg/mL
7,CCC1SC(=Nc2cccc(C)c2)NC1=O (stereo not given),> 35.1 µg/mL
8,Brc1ccc(-c2ncc3ccccn23)cc1,29.3 µg/mL
9,COc1ccccc1CC(=O)N1CCN(c2cccc(Cl)c2)CC1,22 µg/mL
10,CCOc1ccccc1CNC(=O)CCc1cn(C)c2ccccc12,3.1 µg/mL
11,CC(C)(C)CC(=O)NC(=S)NCc1ccccc1,1.7 µg/mL
12,Cn1ccnc1SCC(=O)c1ccc2ccccc2c1,35.8 µg/mL
13,Cl.N#C/C=C/N1CCN(Cc2ccc3c(c2)OCO3)CC1,> 46.2 µg/mL
14,N/C(=N\OC(=O)c1ccccc1Cl)c1cccc([N+](=O)[O-])c1,1.7 µg/mL
15,COc1cccc(NC(=S)NC(=O)Cc2ccccc2)c1,16 µg/mL
16,COc1ccccc1CNc1ccc(N2CCCCC2)cc1,30 µg/mL
17,COC(=O)c1cc(=O)c2cccc(OC)c2[nH]1,> 35 µg/mL
18,O=C(Nc1cccc([N+](=O)[O-])c1)C1CC(=O)N(C2CCCCC2)C1 (stereo not given),48.5 µg/mL
19,Cc1ccc(C(=O)Nc2ccccc2N2CCCCC2)cc1,< 0.3 µg/mL
20,Cc1c(C(=O)OC(C)C(=O)N(C)Cc2ccccc2)oc2ccccc12 (stereo not given),18.5 µg/mL
21,COc1ccc2cc(C(=O)O)n(CC(=O)c3ccccc3)c2c1,> 46.4 µg/mL
22,COC(=O)c1scc(S(=O)(=O)C(C)(C)C)c1-n1cccc1,35.6 µg/mL
23,CN1CCN(c2oc(-c3ccccc3)nc2S(=O)(=O)c2ccccc2)CC1,1.4 µg/mL
24,O=C(NCc1ccc(Cl)cc1)N1CCc2ccccc2C1,4.5 µg/mL
